Measurements taken from the Kinase Knowledgebase extract (Sharma et al. 2016).

Molecular target: MAPK14;MAPK11;MAPK12;MAPK13 (human) (UniProt Q16539)
Test: Assessment of MAPK11/MAPK12/MAPK13/MAPK14 Kinase Activity

IC50 [nM]	SMILES
< 25	Cc1ccc(C(=O)NC2CC2)cc1-c1cc(C)n2c(-c3ccccc3Cl)nnc2c1
< 25	Cc1ccc(C(=O)NC2CC2)cc1-c1ccn2c(C34C[C@H]5C[C@@H](C3)C[C@@H](C4)C5)nnc2c1
< 25	Cc1ccc(C(N)=O)cc1-c1ccn2c(-c3ccccc3Cl)nnc2c1
< 25	Cc1ccc(C(=O)NC2CC2)cc1-c1ccn2c(-c3sccc3C)nnc2c1
< 25	Cc1ccc(C(=O)Nc2ccnn2C)cc1-c1ccn2c(-c3ccc(F)cc3C)nnc2c1
< 25	Cc1ccccc1-c1nnc2cc(-c3cc(C(=O)NC4CC4)cc(F)c3C)ccn12
< 25	Cc1ncoc1-c1nnc2cc(-c3cc(C(=O)NC4CC4)cc(F)c3C)ccn12
< 25	Cc1ccc(C(=O)NC2CC2)cc1-c1ccn2c(-c3c(F)cccc3Cl)nnc2c1
< 25	Cc1ccc(C(=O)Nc2ccnn2C)cc1-c1ccn2c(-c3cnccc3C(F)(F)F)ncc2c1
< 25	Cc1ccc(C(=O)Nc2ccnn2C)cc1-c1ccn2c(-c3cc(F)cc(F)c3)ncc2c1
< 25	Cc1ccc(C(=O)Nc2ccnn2C)cc1-c1ccn2c(-c3ccc(F)cc3Cl)nnc2c1
< 25	Cc1ccc(C(=O)Nc2ccnn2C)cc1-c1cc2nnc(-c3ccccc3Cl)n2cc1C
< 25	Cc1ccc(C(=O)Nc2ccnn2C)cc1-c1ccn2c(-c3ccc(F)cc3C)ncc2c1
< 25	Cc1ccc(C(=O)NC2CC2)cc1-c1ccn2c(N3CCCCC3)nnc2c1
< 25	Cc1ccc(C(=O)Nc2ccnn2C)cc1-c1ccn2c(-c3ccccc3F)nnc2c1
< 25	Cc1ccc(C(=O)NC2CC2)cc1-c1ccn2c(-c3ccccc3Cl)nnc2c1
< 25	Cc1ccc(C(=O)NC2CC2)cc1-c1ccn2c(-c3ccc(F)cc3C)ncc2c1
< 25	Cc1c(F)cc(C(=O)NC2CC2)cc1-c1ccn2c(-c3c(F)cccc3F)nnc2c1
< 25	Cc1ccc(C(=O)NC2CC2)cc1-c1ccn2c(C3CCCCC3)nnc2c1
< 25	Cc1ccc(C(=O)NC2CC2)cc1-c1ccn2c(-c3ccccc3C)nnc2c1
< 25	Cc1ccc(C(=O)NC2CC2)cc1-c1ccn2c(CC(C)(C)C)nnc2c1
< 25	Cc1cc(F)c(C(=O)NC2CC2)cc1-c1ccn2c(-c3ccccc3Cl)nnc2c1
< 25	Cc1ccc(C(=O)NC2CC2)cc1-c1ccn2c(N3CCCC3)nnc2c1
< 25	Cc1ccc(C(=O)NC2CC2)cc1-c1ccn2c(-c3c(Cl)cccc3Cl)nnc2c1

IC50 [nM]	SMILES
< 25	Cc1c(F)cc(C(=O)NC2CC2)cc1-c1ccn2c(-c3ccccc3Cl)nnc2c1
< 25	Cc1ccc(C(=O)NC2CC2)cc1-c1ccn2c(C3CC3)nnc2c1
< 25	Cc1ccc(C(=O)NC2CC2)cc1-c1ccn2c(-c3ccc(F)cc3Cl)nnc2c1
< 25	Cc1ccc(C(=O)NC2CC2)cc1-c1ccn2c(Nc3ccccc3)nnc2c1
< 25	CCc1ccccc1-c1nnc2cc(-c3cc(C(=O)NC4CC4)ccc3C)ccn12
< 25	Cc1ccc(C(=O)Nc2ccnn2C)cc1-c1ccn2c(-c3cc(F)c(F)cc3Cl)nnc2c1
< 25	Cc1ccc(C(=O)NC2CC2)cc1-c1ccn2c(-c3c(C)cccc3Cl)nnc2c1
< 25	Cc1ccc(C(=O)NC2CC2)cc1-c1ccn2c(-c3ccc(S(C)(=O)=O)cc3Cl)nnc2c1
< 25	COc1ccccc1-c1nnc2cc(-c3cc(C(=O)NC4CC4)ccc3C)ccn12
< 25	Cc1ccc(C(=O)NC2CC2)cc1-c1ccn2c(Cc3ccccc3)nnc2c1
< 25	Cc1ccc(C(=O)NC2CC2)cc1-c1ccn2c(-c3cccc(F)c3Cl)nnc2c1
< 25	Cc1ccc(C(=O)NC2CC2)cc1-c1ccn2c(N(C)c3ccccc3)nnc2c1
< 25	Cc1ccc(C(=O)NC2CC2)cc1-c1ccn2c(NC(C)C)nnc2c1
< 25	Cc1ccc(C(=O)NC2CC2)cc1-c1ccn2c(-c3sccc3Cl)nnc2c1
< 25	CCNC(=O)c1ccc(C)c(-c2ccn3c(-c4ccccc4Cl)nnc3c2)c1
< 25	Cc1ccc(C(=O)Nc2ccnn2C)cc1-c1ccn2c(-c3cc(F)ccc3Cl)nnc2c1
< 25	Cc1c(F)cc(C(=O)Nc2ccon2)cc1-c1ccn2c(-c3c(F)cccc3F)nnc2c1
< 25	Cc1c(F)cc(C(=O)NC2CC2)cc1-c1ccn2c(-c3ccccc3C(F)(F)F)nnc2c1
< 25	Cc1ccc(C(=O)Nc2ccnn2C)cc1-c1ccn2c(-c3sccc3C)nnc2c1
< 25	Cc1ccc(C(=O)NC2CC2)cc1-c1ccn2c(C3CCCC3)nnc2c1
< 25	Cc1ccc(C(=O)NC2CC2)cc1-c1ccn2c(-c3ccc(F)cc3C)nnc2c1
< 25	Cc1c(F)cc(C(=O)NC2CC2)cc1-c1ccn2c(-c3c(F)cccc3Cl)nnc2c1
< 25	Cc1ccc(C(=O)NC2CC2)cc1-c1ccn2c(-c3c(C)cccc3F)nnc2c1
< 25	Cc1cccc(F)c1-c1nnc2cc(-c3cc(C(=O)NC4CC4)cc(F)c3C)ccn12

IC50 [nM]	SMILES
< 25	Cc1ccc(C(=O)NC2CC2)cc1-c1ccn2c(C3CCOCC3)nnc2c1
< 25	Cc1c(F)cc(C(=O)NC2CC2)cc1-c1ccn2c(C(C)(C)C)nnc2c1
< 25	Cc1c(F)cc(C(=O)NC2CC2)cc1-c1ccn2c(-c3c(Cl)cccc3Cl)nnc2c1
< 25	Cc1ccc(C(=O)Nc2ccnn2C)cc1-c1ccn2c(-c3ccccc3Cl)ncc2c1
< 25	Cc1ccc(C(=O)NC2CC2)cc1-c1ccn2c(-c3ccccc3F)nnc2c1
< 25	Cc1ccc(C(=O)NC2CC2)cc1-c1ccn2c(-c3ccccc3)nnc2c1
< 25	Cc1ccc(C(=O)Nc2ccon2)cc1-c1ccn2c(-c3c(F)cccc3F)nnc2c1
< 25	Cc1ccc(C(=O)Nc2ccnn2C)cc1-c1ccn2c(-c3cccc(F)c3Cl)nnc2c1
< 25	Cc1ccc(C(=O)NC2CC2)cc1-c1cc2nnc(-c3ccccc3Cl)n2cc1C
< 25	Cc1ccc(C(=O)NC2CC2)cc1-c1ccn2c(C(C)(C)C)nnc2c1
< 25	Cc1c(F)cc(C(=O)NC2CC2)cc1-c1ccn2c(-c3ccncc3Cl)nnc2c1
< 25	Cc1ccc(C(=O)NC2CC2)cc1-c1ccn2c(C3(C(F)(F)F)CC3)nnc2c1
< 25	Cc1ccc(C(=O)Nc2ccnn2C)cc1-c1ccn2c(C3(C(F)(F)F)CC3)nnc2c1
< 25	Cc1cccc(Cl)c1-c1nnc2cc(-c3cc(C(=O)NC4CC4)cc(F)c3C)ccn12
< 25	Cc1ccc(C(=O)NC2CC2)cc1-c1ccn2c(-c3cc(F)c(F)cc3Cl)nnc2c1
< 25	Cc1ccc(C(=O)NC2CC2)cc1-c1ccn2c(C(C)C)nnc2c1
< 25	Cc1ccc(C(=O)Nc2ccnn2C)cc1-c1ccn2c(C(C)C)nnc2c1
< 25	Cc1ccc(C(=O)NC2CC2)cc1-c1ccn2c(-c3ccccc3C(F)(F)F)nnc2c1
< 25	Cc1ccc(C(=O)NC2CC2)cc1-c1ccn2c(-c3c(F)cccc3C(F)(F)F)nnc2c1
< 25	Cc1ccc(C(=O)NC2CC2)cc1-c1ccn2c(-c3cc(F)ccc3Cl)nnc2c1
< 25	Cc1ccc(C(=O)NC2CC2)cc1-c1ccn2c(-c3ccncc3Cl)nnc2c1
< 25	Cc1ccc(C(=O)Nc2ccnn2C)cc1-c1ccn2c(-c3ccccc3Cl)nnc2c1
< 25	Cc1ccc(C(=O)NC2(C)CC2)cc1-c1ccn2c(-c3ccccc3Cl)nnc2c1
